Source: patent US9540427B2, “Peptide-based stat inhibitor” (The United States of America, as represented by the …, priority 2007, dated 2017)
pIC50: −log10 of the molar value. Square brackets hold non-standard residues; d marks the D form. Ends that are not written are not given here. Peptide text beside a SMILES is read from it. * marks the point of attachment. Phe(4-CN) = N#Cc1ccc(C[C@H](N)C(=O)O)cc1; Palmitoyl = CCCCCCCCCCCCCCCC(=O)*; rhodamine = not defined here; Nle = CCCC[C@H](N)C(=O)O; Dab = NCC[C@H](N)C(=O)O

Experiments:
[1] = test system: MCF7 breast cancer cells; assay: MTT assay of growth inhibition / cytotoxicity in MCF7 cells; format: cell-based, human; conditions: for Cell growth, % of control: 5 μM, MTT assay 48 hours after exposure
Procedure: Activity was determined by MTT assay 48 hours after exposure of the MCF7 cells to the test compounds.
Peptides were constructed based on variations of the amino acid sequence of the second helix of STAT1 and STAT5a. ε-palmitoyl lysine was substituted for penetratin as a cell-penetrating motif Several residues of penetratin sequence were preserved in the lipopeptide derivatives, which served as a linking sequence. The peptides and peptidomimetics were tested for growth inhibitory and cytotoxic activity in MCF7 cells using an MTT assay as described in Example 2.
Retro-inverso peptide analogues were prepared comprising variants of the sequence of helix 2 of STAT3. STAT3-Hel2A-2 (see Example 3) was used as a starting sequence, in which all but three residues of the original penetratin sequence was replaced with palmitic acid. The variants were produced by systematically truncating and substituting the base sequence. The compounds were used to treat MCF7 breast cancer cells. IC50 values were determined 48 hours after exposing the cells to the test compounds.

[2] = test system: STAT3 signaling; assay: Luciferase reporter assay (Mercury JAK-STAT Pathway Profiling system, GAS or STAT3 elements) in MCF-7 cells; format: cell-based, human; set-up: concentration or dose not given beside the values; conditions: luciferase reporter with GAS or STAT3 elements, basal expression, within one hour after treatment
Procedure: Selected peptides were tested for inhibition of STAT3 signaling in breast cancer cell lines by luciferase reporter assay. The assay employed the Mercury JAK-STAT Pathway Profiling system (Clontech), which includes the enhancer elements GAS (interferon-γ activating sequence) or STAT3 (a modified GAS sequence) introduced as three tandem copies upstream of the TA promoter in a luciferase reporter vector. STAT3 helix 2 analogs reduced basal expression of the reporter construct containing the GAS, or STAT3 elements in MCF-7 cells within one hour after treatment.

[3] = target: T1, STAT3 tagged with eGFP (eGFP-STAT3) (Homo sapiens, UniProt P40763); assay: FRET in living cells expressing eGFP-STAT3; format: binding; conditions: HEK293 cells stably expressing eGFP-STAT3, 5 μM, one hour
T1 construct: expressed in transfected cells; host or cells: HEK293
T1 sequence (P40763 whole entry): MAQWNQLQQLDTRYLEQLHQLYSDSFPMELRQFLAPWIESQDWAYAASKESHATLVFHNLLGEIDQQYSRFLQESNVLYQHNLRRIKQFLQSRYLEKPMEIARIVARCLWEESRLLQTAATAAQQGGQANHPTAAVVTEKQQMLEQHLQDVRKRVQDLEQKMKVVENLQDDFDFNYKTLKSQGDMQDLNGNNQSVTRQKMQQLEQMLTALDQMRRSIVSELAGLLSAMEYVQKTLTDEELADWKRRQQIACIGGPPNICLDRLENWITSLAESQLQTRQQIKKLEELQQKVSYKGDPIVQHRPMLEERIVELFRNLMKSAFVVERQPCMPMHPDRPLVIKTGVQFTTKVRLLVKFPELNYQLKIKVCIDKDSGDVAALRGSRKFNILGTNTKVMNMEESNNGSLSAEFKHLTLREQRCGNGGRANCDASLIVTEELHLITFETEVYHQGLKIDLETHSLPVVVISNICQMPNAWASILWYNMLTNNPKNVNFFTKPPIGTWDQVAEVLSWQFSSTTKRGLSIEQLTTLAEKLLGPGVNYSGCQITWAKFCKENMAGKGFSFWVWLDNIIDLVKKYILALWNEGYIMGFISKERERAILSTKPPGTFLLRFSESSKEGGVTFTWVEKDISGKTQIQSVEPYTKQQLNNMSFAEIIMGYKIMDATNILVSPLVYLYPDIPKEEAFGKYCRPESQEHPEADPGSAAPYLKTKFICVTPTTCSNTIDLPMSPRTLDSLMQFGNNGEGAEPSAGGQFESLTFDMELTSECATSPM
Procedure: Fluorescence Resonance Energy Transfer (FRET) method was used to determine whether STAT3-HEL2A-2 (see Example 3) interacts with STAT3 in living cells. HEK293 cells stably expressing STAT3 tagged with eGFP on its N-terminus (eGFP-STAT3) were treated for one hour with 5 μM of STAT3-HEL2A-2 labeled with rhodamine. An additional cysteine residue was positioned at the C-terminus of penetratin to facilitate labeling. Excitation of eGFP (donor) was facilitated using a 488-nm light source, and the emission spectrum was detected. In the absence of energy transfer between eGFP and rhodamine, excitation of eGFP would lead to an emission peak at 520-540 nm, whereas energy transfer from eGFP to an adjacent rhodamine fluorochrome acceptor would cause an emission in the 560-600 nm range. […] The photobleaching of rhodamine restored the fluorescence of eGFP.
Cells expressing eGFP-STAT3, eGFP-STAT1, or eGFP were treated with rhodamine-labeled STAT3-HEL2A-2 (see Example 6). Excitation of eGFP was facilitated, and the emission spectrum detected, in accordance with the methods described in Example 6. FRET efficiency was calculated using equation 1-D0/D1, where D0 is fluorescence intensity of eGFP before rhodamine photobleaching and D1 is the intensity after rhodamine photobleaching.

[4] = test system: STAT3-dependent transcription (APRE reporter); assay: APRE luciferase reporter in MCF-7 cells activated by LIF; format: cell-based, human; conditions: basal and LIF-stimulated
Description: (§1) To evaluate effects of inhibitors on cytokine-activated transcription, luciferase reporter vectors APRE and ISRE were employed (Takeda et al., J. Endocrinol. 159, 323-330 (1998); Ivanova et al., J. Mol. Biol. 340, 641-653 (2004)). APRE was activated in MCF-7 cells by LIF.

[5] = target: T2, STAT1 (Homo sapiens, UniProt P42224); assay: STAT1 tyrosine phosphorylation and expression in cytokine-treated breast cancer cells; format: cell-based; conditions: pretreatment 1 hour
T2 construct: endogenous in cells; host or cells: MCF-7 and MDA-MB-231
T2 sequence (P42224 1-750): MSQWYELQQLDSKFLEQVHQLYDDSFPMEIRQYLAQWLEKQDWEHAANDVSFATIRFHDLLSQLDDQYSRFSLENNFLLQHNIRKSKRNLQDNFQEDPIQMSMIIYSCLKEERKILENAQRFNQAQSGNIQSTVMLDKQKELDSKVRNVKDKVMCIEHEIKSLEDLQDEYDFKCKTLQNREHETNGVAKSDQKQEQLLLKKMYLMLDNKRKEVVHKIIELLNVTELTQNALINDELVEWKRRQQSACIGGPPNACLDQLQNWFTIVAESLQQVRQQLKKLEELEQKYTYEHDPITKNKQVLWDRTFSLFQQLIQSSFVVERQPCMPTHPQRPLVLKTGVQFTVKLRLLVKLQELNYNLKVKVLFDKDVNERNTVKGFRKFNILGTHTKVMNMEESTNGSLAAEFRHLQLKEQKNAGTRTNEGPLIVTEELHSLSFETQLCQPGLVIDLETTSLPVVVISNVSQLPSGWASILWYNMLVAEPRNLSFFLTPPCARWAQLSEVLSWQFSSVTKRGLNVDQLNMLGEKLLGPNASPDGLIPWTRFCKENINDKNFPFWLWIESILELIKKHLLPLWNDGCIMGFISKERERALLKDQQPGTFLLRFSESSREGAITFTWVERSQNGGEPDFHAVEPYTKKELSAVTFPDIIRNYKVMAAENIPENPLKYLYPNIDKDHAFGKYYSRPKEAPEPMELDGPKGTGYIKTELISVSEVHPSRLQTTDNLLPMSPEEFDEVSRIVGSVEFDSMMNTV
Procedure: (§2) MCF-7 and MDA-MB-231 cells were treated with Leukemia Inhibitory Factor (LIF) to activate STAT3 and with Interferon gamma (IFN-γ) to activate STAT1 signaling. In MCF-7 cells, LIF induced selective STAT3 tyrosine phosphorylation and IFN-γ induced selective STAT1 tyrosine phosphorylation. In MDA-MB-231 cells, however, each cytokine induced both STAT3 and STAT1 tyrosine phosphorylation.

[6] = test system: STAT1-dependent transcription (ISRE reporter); assay: ISRE luciferase reporter in MCF-7 cells activated by IFN-γ; format: cell-based, human; conditions: IFN-γ-stimulated
Description: as §1

[7] = target: T3, STAT3 (Homo sapiens, UniProt P40763); assay: STAT3 tyrosine phosphorylation and expression in cytokine-treated breast cancer cells; format: cell-based; conditions: pretreatment 1 hour
T3 construct: endogenous in cells; host or cells: MCF-7 and MDA-MB-231
T3 sequence (P40763 whole entry): as the sequence (P40763 whole entry) above
Procedure: as §2

[8] = MCF-7 and MDA-MB-231 cells treated with LIF or IFN-γ

Compound	Cell growth, % of control [1] [%]	Activity, % of control [2] [%]	other results
DTKYLEQLHKLYS (DTKYLEQLHKLYS-penetratin) [Hel2D-Pen, penetratin fused to the C-terminus]	42 ± 4	–	–
DTRYLEQLHKLY (DTRYLEQLHKLY-penetratin) [Hel2A-2a-Pen, penetratin fused to the C-terminus]	65 ± 5	–	–
LDTRYLEQLHKLYS (LDTRYLEQLHKLYS-penetratin) [Hel2B-Pen, penetratin fused to the C-terminus]	82 ± 6	100 ± 9	–
DTRYLEQLHDabLY (DTRYLEQLH[Dab]LY; also: penetratin fused C-terminally) [Hel2I-Pen, penetratin fused to the C-terminus]	25 ± 4	53 ± 6	–
DTRYLEQLHDabLYS (DTRYLEQLH[Dab]LYS; also: penetratin fused C-terminally) [Hel2F-Pen, penetratin fused to the C-terminus]	60 ± 5	–	–
DTRYLQELHKLYS (DTRYLQELHKLYS-penetratin) [Hel2E-Pen, penetratin fused to the C-terminus]	46 ± 4	–	–
LDTRYLEQLHQLYS (LDTRYLEQLHQLYS-penetratin) [Hel2-Pen]	73 ± 5	56 ± 5	–
CCCCCCCCCCCCCCCC(=O)N[C@H](CCCCN)C(=O)N[C@H](Cc1ccc(O)cc1)C(=O)N[C@H](CC(C)C)C(=O)N[C@H](CCCCN)C(=O)N[C@H](Cc1c[nH]cn1)C(=O)N[C@H](CC(C)C)C(=O)N[C@H](CCC(N)=O)C(=O)N[C@H](CCC(=O)O)C(=O)N[C@H](CC(C)C)C(=O)N[C@H](Cc1ccc(O)cc1)C(=O)N[C@H](CCCNC(=N)N)C(=O)N[C@@H](C(=O)N[C@H](CC(=O)O)C(N)=O)[C@H](C)O [St3-H2a-2a-Pa17] (Palmitoyl-[dK][dY][dL][dK][dH][dL][dQ][dE][dL][dY][dR][dT][dD]-NH2; C-terminus assumed)	–	–	pIC50 ([1]; read-out: IC50 (concentration causing 50% growth inhibition), 48 hours after exposure, Table 8): 5.74
DTRYLEQLHKLYS (DTRYLEQLHKLYS-penetratin) [Hel2A-Pen, penetratin fused to the C-terminus]	44 ± 5	100 ± 9	–
LDTKYLEQLHDabLY (LDTKYLEQLH[Dab]LY; also: penetratin fused C-terminally) [Hel2K-Pen, penetratin fused to the C-terminus]	8 ± 2	–	–
LDTRYLEQLHDabLY (LDTRYLEQLH[Dab]LY; also: penetratin fused C-terminally) [Hel2H-Pen, penetratin fused to the C-terminus]	45 ± 4	43 ± 4	–
Ac-DTRYLEQLHELY (Ac-DTRYLEQLHELY-penetratin; also: penetratin fused C-terminally) [Hel2A-4-Pen, penetratin fused to the C-terminus]	91 ± 6	–	–
Ac-DTRYLEQLHALY (Ac-DTRYLEQLHALY-penetratin; also: penetratin fused C-terminally) [Hel2A-3-Pen, penetratin fused to the C-terminus]	93 ± 6	89 ± 9	–
rhodamine-labeled STAT3-HEL2A-2: STAT3-HEL2A-2 labeled with rhodamine via an additional cysteine residue at the C-terminus of penetratin (LDTRYLEQLHKLYRQIKIWFPNRR[Nle]KWKKC(rhodamine); reading uncertain)	–	–	Quenching of the normal fluorescence of eGFP [3]: 90%
DSKFLEQVHKLY-penetratin [STAT1-Hel2A-2]	–	–	Effect on APRE reporter expression [4]: inhibited both basal and stimulated expression; Effect on expression level of STAT1 protein ([5]; MCF-7 and MDA-MB-231 cells): did not change; Effect on tyrosine phosphorylation of STAT1 [5, 8]: did not affect; Effect on ISRE reporter activation [6]: prevented cytokine-stimulated reporter activation; Effect on expression level of STAT3 protein ([7]; MCF-7 and MDA-MB-231 cells): did not change; Effect on tyrosine phosphorylation of STAT3 [7, 8]: did not affect
Ac-ATRYLEQLHKLY (Ac-ATRYLEQLHKLY-penetratin; also: penetratin fused C-terminally) [Hel2A-5-Pen, penetratin fused to the C-terminus]	85 ± 5	–	–
DTRYLEQLHKLCyPheS (DTRYLEQLHKL[Phe(4-CN)]S; also: penetratin fused C-terminally) [Hel2C-Pen, CyPhe is 4-cyano phenylalanine; penetratin fused to the C-terminus]	38 ± 4	–	–
Ac-DTRYLEQLHKLY (Ac-DTRYLEQLHKLY-penetratin; also: penetratin fused C-terminally) [Ac-Hel2A-2a-Pen, penetratin fused to the C-terminus]	45 ± 5	–	–
